Source: ChEMBL document CHEMBL5346930, “Discovery of novel N-benzylarylamide-dithiocarbamate based derivatives as dual inhibitors of tubulin polymerization and LSD1 that inhibit gastric cancers” (Eur J Med Chem, 2023)
The source made the active and inactive calls. No cut-off for these calls is given here.

Experiments:
[1] = tested on: SGC-7901; experiment: Induction of apoptosis in human SGC-7901 cells assessed as increase in cleaved PARP level at 0 to 30 nmol/L incubated for 48 hrs by Western blot analysis; type: functional, cell-based; conditions: dose 0-30 nmol/L
[2] = tested on: SGC-7901; experiment: Antiproliferative activity against human SGC-7901 cells assessed as inhibition of cell growth incubated for 48 hrs by MTT assay; type: functional, cell-based; conditions: SGC-7901, 48 h
[3] = tested on: SGC-7901; experiment: Induction of cell cycle arrest in human SGC-7901 cells assessed as reduction in CDC2 phosphorylation at Thr161 residue at 0 to 30 nmol/L incubated for 48 hrs by Western blot analysis; type: functional, cell-based; conditions: dose 0-30 nmol/L
[4] = tested on: HCT-116; experiment: cells; conditions: Homo sapiens, HCT-116, 48 h
Description: Antiproliferative activity against human HCT-116 cells assessed as inhibition of cell growth incubated for 48 hrs by MTT assay

[5] = tested on: SGC-7901; experiment: Induction of apoptosis in human SGC-7901 cells assessed as downregulation of Bcl-2 protein expression incubated for 48 hrs by Western blot analysis; type: functional, cell-based; conditions: dose 0-30 nmol/L
[6] = tested on: SGC-7901; experiment: Induction of cell cycle arrest in human SGC-7901 cells assessed as downregulation of CDC2 protein expression incubated for 48 hrs by Western blot analysis; type: functional, cell-based; conditions: dose 0-30 nmol/L
[7] = tested on: HGC-27; experiment: Antiproliferative activity against human HGC-27 cells assessed as inhibition of cell growth incubated for 48 hrs by MTT assay; type: functional, cell-based; conditions: HGC-27, 48 h
[8] = tested on: Huh-7; experiment: Antiproliferative activity against human Huh-7 cells assessed as inhibition of cell growth incubated for 48 hrs by MTT assay; type: functional, cell-based; conditions: Huh-7, 48 h
[9] = molecular target: Lysine-specific histone demethylase 1A (Homo sapiens, UniProt O60341); experiment: Inhibition of LSD1 in human MGC-803 cells assessed as increase in H3K4me2 expression level at 0 to 24 nmol/L incubated for 48 hrs by Western blot analysis; type: cell-based; conditions: dose 0-24 nmol/L
[10] = tested on: MGC-803; experiment: Antitumor activity against human MGC-803 cells xenografted in BALB/c nude mouse assessed as tumor growth inhibition at 25 mg/kg/day, ip administered every day for 21 days; type: functional, organism-based; conditions: time 21.0 day
[11] = tested on: SGC-7901; experiment: Induction of cell cycle arrest in human SGC-7901 cells assessed as accumulation of cells at G2/M phase at 30 nmol/L incubated for 48 hrs (reference value: 32%); type: functional
[12] = tested on: SGC-7901; experiment: Induction of apoptosis in human SGC-7901 cells assessed as increase in total apoptotic cells incubated for 48 hrs by Annexin-FITC/PI staining based flow cytometry analysis; type: functional, cell-based; conditions: dose 0-30 nmol/L
[13] = Nephrotoxicity in BALB/c nude mouse xenografted with human MGC-803 cells assessed as effect on creatinine level at 25 mg/kg/day, ip administered every day for 21 days; type: toxicity, organism-based; conditions: in vivo, 504 h, time 21 day
[14] = Toxicity in BALB/c nude mouse xenografted with human MGC-803 cells assessed as reduction in body weight at 25 mg/kg/day, ip administered every day for 21 days; type: organism-based; conditions: in vivo, 504 h, time 21 day
[15] = tested on: MGC-803; experiment: Induction of apoptosis in human MGC-803 cells assessed as total apoptotic cells at 24 nmol/L incubated for 48 hrs by Annexin-FITC/PI staining based flow cytometry analysis (reference value: 10.9%); type: functional
[16] = tested on: MGC-803; experiment: Induction of cell cycle arrest in human MGC-803 cells assessed as downregulation of CDC2 protein expression incubated for 48 hrs by Western blot analysis; type: functional, cell-based; conditions: dose 0-24 nmol/L
[17] = tested on: SGC-7901; experiment: Induction of apoptosis in human SGC-7901 cells assessed as activation of caspase-7 at 0 to 30 nmol/L incubated for 48 hrs by Western blot analysis; type: functional, cell-based; conditions: dose 0-30 nmol/L
[18] = tested on: SGC-7901; experiment: Induction of morphological changes in human SGC-7901 cells assessed as reduction in cell density at 0 to 30 nmol/L incubated for 48 hrs by bright field microscopic analysis; type: functional, cell-based; conditions: dose 0-30 nmol/L
[19] = tested on: SGC-7901; experiment: Induction of morphological changes in human SGC-7901 cells assessed as increase in proportion of dead cells at 0 to 30 nmol/L incubated for 48 hrs by calcein-AM/PI staining based analysis; type: functional, cell-based; conditions: dose 0-30 nmol/L
[20] = tested on: SGC-7901; experiment: Induction of cell cycle arrest in human SGC-7901 cells assessed as increase in p-Histone H3 protein expression incubated for 48 hrs by Western blot analysis; type: functional, cell-based; conditions: dose 0-30 nmol/L
[21] = tested on: SGC-7901; experiment: Induction of DNA damage in human SGC-7901 cells assessed as DNA fragmentation by measuring increase in comet tails by fluorescence microscope based comet assay; type: functional, cell-based; conditions: dose 0-30 nmol/L
[22] = tested on: NCI-H520; experiment: Antiproliferative activity against human NCI-H520 cells assessed as inhibition of cell growth incubated for 48 hrs by MTT assay; type: functional, cell-based; conditions: NCI-H520, 48 h
[23] = tested on: MGC-803; experiment: Induction of morphological changes in human MGC-803 cells assessed as appearance of bright and shrunken nucleus at 0 to 24 nmol/L incubated for 48 hrs by DAPI staining based analysis; type: functional, cell-based; conditions: dose 0-24 nmol/L
[24] = tested on: MGC-803; experiment: Antiproliferative activity against human MGC-803 cells assessed as inhibition of cell growth at 10 to 30 nM by MTT assay; type: functional, cell-based; conditions: dose 10-30 nM, time 0-60 hrs, TDE = time-dependent effect
[25] = tested on: MGC-803; experiment: Induction of cell cycle arrest in human MGC-803 cells assessed as accumulation of cells at G2/M phase at 24 nmol/L incubated for 48 hrs (reference value: 33%); type: functional
[26] = tested on: TE-1; experiment: Antiproliferative activity against human TE-1 cells assessed as inhibition of cell growth incubated for 48 hrs by MTT assay; type: functional, cell-based; conditions: TE-1, 48 h
[27] = tested on: MGC-803; experiment: Antitumor activity against human MGC-803 cells xenografted in BALB/c nude mouse assessed as reduction in tumor weight at 25 mg/kg/day, ip administered every day for 21 days; type: functional, organism-based; conditions: time 21.0 day
[28] = tested on: MGC-803; experiment: Induction of morphological changes in human MGC-803 cells assessed as reduction in cell density at 0 to 24 nmol/L incubated for 48 hrs by bright field microscopic analysis; type: functional, cell-based; conditions: dose 0-24 nmol/L
[29] = tested on: MGC-803; experiment: Induction of morphological changes in human MGC-803 cells assessed as increase in proportion of dead cells at 0 to 24 nmol/L incubated for 48 hrs by calcein-AM/PI staining based analysis; type: functional, cell-based; conditions: dose 0-24 nmol/L
[30] = tested on: SGC-7901; experiment: Induction of apoptosis in human SGC-7901 cells assessed as activation of caspase-3 at 0 to 30 nmol/L incubated for 48 hrs by Western blot analysis; type: functional, cell-based; conditions: dose 0-30 nmol/L
[31] = molecular target: Tubulin; experiment: Inhibition of tubulin polymerization (unknown origin) assessed as reduction in fluorescence intensity measured every 60 secs for 1 hr by microplate reader analysis; type: protein-complex assay, Homo sapiens
[32] = tested on: DU-145; experiment: Antiproliferative activity against human DU-145 cells assessed as inhibition of cell growth incubated for 48 hrs by MTT assay; type: functional, cell-based; conditions: DU-145, 48 h
[33] = molecular target: Tubulin beta (Homo sapiens) (UniProt P68371+Q9H4B7+Q13509+P04350+Q3ZCM7+P07437+Q13885+Q9BVA1+Q9BUF5+A6NNZ2); experiment: Binding affinity to colchicine binding site of beta-tubulin in human MGC-803 cells assessed as inhibition of beta-tubulin alkylation by measuring disappearance of beta-tubulin-EBI adduct band pretreated for 2 hrs followed by EBI addition and measured after 2 hrs by Western blot analysis; type: cell-based; conditions: dose 0-10 µM, time 4.0 hrs
[34] = tested on: SGC-7901; experiment: Induction of cell cycle arrest in human SGC-7901 cells assessed as reduction in cyclin B1 protein expression incubated for 48 hrs by Western blot analysis; type: functional, cell-based; conditions: dose 0-30 nmol/L
[35] = tested on: SGC-7901; experiment: Induction of apoptosis in human SGC-7901 cells assessed as increase in cleaved caspase-7 level at 0 to 30 nmol/L incubated for 48 hrs by Western blot analysis; type: functional, cell-based; conditions: dose 0-30 nmol/L

IC50 [2]: 19.5 nM
IC50 [4]: 44 nM
IC50 [8]: 47.9 nM
inhibition [9]: Active
IC50 [22]: 22.5 nM
IC50 [31]: 3060 nM
IC50 [32]: 49.9 nM
Activity [33]: Dose-Dependent Effect
SMILES: COc1ccc(CN(C(=O)CSC(=S)N2CCN(c3ccc(N)cc3)CC2)c2cc(OC)c(OC)c(OC)c2)cc1O
Activity [1]: Active
Activity [3]: Active
Activity [5]: Dose-Dependent Effect
Activity [6]: Dose-Dependent Effect
IC50 [7]: 24.5 nM
Activity [10]: Active
Activity [11]: 74%
Activity [12]: Dose-Dependent Effect
Activity [13]: Non-Toxic
Activity [14]: Non-Toxic
Activity [15]: 85.5%
Activity [16]: Dose-Dependent Effect
Activity [17]: Active
Activity [18]: Active
Activity [19]: Active
Activity [20]: Dose-Dependent Effect
Activity [21]: Dose-Dependent Effect
Activity [23]: Active
Activity [24]: Tde
Activity [25]: 60%
IC50 [26]: 31.4 nM
Activity [27]: Active
Activity [28]: Active
Activity [29]: Active
Activity [30]: Active
Activity [34]: Dose-Dependent Effect
Activity [35]: Active
